In brackets after ≈: the same amount, converted by molar mass.
Experiment: Solubility of acyclovir in glycerol formal/water and glycerol formal/propylene glycol/water mixtures
Assay type: physicochemical
Settings: room temperature
Procedure: A surplus of acyclovir is added to glycerol formal/water mixtures and glycerol formal/propylene glycol/water mixtures at room temperature, and the mixtures are then stirred for 2 hours and filtered. Subsequent to adequate dilution with 0.1 N NaOH the solutions are spectrophotometrically measured at 260 nm against 0.1 N NaOH. A 0.01% solution of acyclovir in 0.1 N NaOH is used as standard.

solubility at 2 h (0 percent by volume glycerol formal in water, stirred 2 hours): 1170 µg/mL (≈ 5.2 mM)
solubility at 2 h (10% glycerol formal in water, organic solvent or mixture, 10 percent by volume glycerol formal in water, stirred 2 hours): 1630 µg/mL (≈ 7.24 mM)
solubility at 2 h (25% glycerol formal in water, organic solvent or mixture, 25 percent by volume glycerol formal in water, stirred 2 hours): 2640 µg/mL (≈ 11.7 mM)
solubility at 2 h (50% glycerol formal in water, organic solvent or mixture, 50 percent by volume glycerol formal in water, stirred 2 hours): 4370 µg/mL (≈ 19.4 mM)
solubility at 2 h (60% glycerol formal in water, organic solvent or mixture, 60 percent by volume glycerol formal in water, stirred 2 hours): 4670 µg/mL (≈ 20.7 mM)
solubility at 2 h (75% glycerol formal in water, organic solvent or mixture, 75 percent by volume glycerol formal in water, stirred 2 hours): 4150 µg/mL (≈ 18.4 mM)
solubility at 2 h (90% glycerol formal in water, organic solvent or mixture, 90 percent by volume glycerol formal in water, stirred 2 hours): 2970 µg/mL (≈ 13.2 mM)
solubility at 2 h (glycerol formal/water 40/20, organic solvent or mixture, Glycerol formal/propylene glycol/water 40/0/20 g/g/ml): 5730 µg/mL (≈ 25.4 mM)
solubility at 2 h (organic solvent or mixture, 100 percent by volume glycerol formal, stirred 2 hours): 3270 µg/mL (≈ 14.5 mM)
solubility at 2 h (organic solvent or mixture, Glycerol formal/propylene glycol/water 11/29/20 g/g/ml): 4710 µg/mL (≈ 20.9 mM)
solubility at 2 h (organic solvent or mixture, Glycerol formal/propylene glycol/water 20/20/20 g/g/ml): 4600 µg/mL (≈ 20.4 mM)
solubility at 2 h (organic solvent or mixture, Glycerol formal/propylene glycol/water 30/10/20 g/g/ml): 5200 µg/mL (≈ 23.1 mM)
solubility at 2 h (propylene glycol/water 40/20, organic solvent or mixture, Glycerol formal/propylene glycol/water 0/40/20 g/g/ml): 3440 µg/mL (≈ 15.3 mM)
SMILES: Nc1nc2c(ncn2COCCO)c(=O)[nH]1 [acyclovir, 9-[(2-hydroxyethoxy)methyl]guanine]

Reference: patent EP0662819B1, “AN ANTIVIRALLY ACTIVE PHARMACEUTICAL OIL-IN-WATER EMULSION CONTAINING 9-[(2-HYDROXYETHOXY)METHYL]GUANINE (ACYCLOVIR) OR A SALT OR ESTER THEREOF” (A/S GEA Farmaceutisk Fabrik, priority 1992, dated 1994)
